Results published in US20230348475A1, “IMIDAZOPYRIDAZINE AND IMIDAZOPYRAZINE COMPOUNDS AS INHIBITORS OF CDK7” (THE TRANSLATIONAL GENOMICS RESEARCH INSTITUTE, priority 2020, published 2023).
pIC50: −log10 of the molar value. Structures can show the parent of a compound that is named as a salt.

Legend:
CDK7/CycH/MAT1 = CDK7/CycH/MAT1 (Homo sapiens, UniProt P50613); experiment: Kinase Glo (ADP-Glo) biochemical assay, CDK7; settings: CDK7/CycH/MAT1 40 ng, ATP 1 μM, 60 minutes at RT, luminescence
Method: Materials: • Assay Buffer: 50 mM HEPES, 3 mM MgCl2, 3 mM MnCl2, 1 mM DTT, 3 μM Na3VO4, pH 7.5 • Substrate RB • CTF Peptide (ProQinase #: 0040-0000-6) • Enzymes • CDK7/CycH/MAT1 (ProQinase #: 0366-0360-4) • ADP-Glo™ Assay (Promega #: V9101) • ATP: 10 mM • ADP-Glo™ Reagent • Kinase Detection Reagent • 384-well white assay plates
A ten point serial dilution of compound was prepared at 5X concentration in assay buffer with the final assay concentrations starting at 30 μM, 10 μM, 3 μM, 1 μM . . . 0 μM. Enzyme, substrate, and ATP were used at 40 ng, 200 ng (or 400 ng)* and 1 μM, respectively. The assay plate was set up by mixing the components in a total reaction volume of 10 μL per well. The plate was centrifuged gently for 10 seconds and incubated at room temperature (RT) for 60 minutes in the dark. The ADP-Glo Reagent and kinase detection reagent were added and incubated as recommended. The reaction was quantified by measuring luminescence on the Perkin Elmer Envision plate reader.

[1] = tested on: MiaPaCa2 pancreatic cancer cell line; experiment: Cell viability assay (Cell Titer Glo), MiaPaCa2; type: cell-based; settings: Table 7a, pancreatic cancer cell line, 72 hour incubation
Method: (§1) Materials: • Cell Lines (Treated according to ATCC guidelines) • Cell Titer Glo (Promega Cat #G7572) • DMSO • 96-well White Tissue Culture Treated Plates (Perkin Elmer Cat #60005680)
(§2) Cells were seeded in a white 96-well tissue culture treated plate at a density of 1500 cells in 90 μL of media per well and allowed to settle overnight. A ten point serial dilution of drugs was prepared at 10×concentration in media with the final assay concentrations starting at 30 μM, 10 μM, 3 μM, 1 μM, 0.3 μM . . . 0 μM. A dilution of DMSO was included as a control. The assay was set up by adding 10 μL of the corresponding drug to each well in duplicate, followed by a 72 hour incubation at 37° C., 5% CO2. Cell viability was quantified by adding 90 μL of Cell Titer Glo to each well and incubating at room temperature for 10 minutes. The reaction was quantified by measuring luminescence using the Envision Plate Reader. Data was analyzed using Graphpad Prism 7 software.

[2] = tested on: HPAC pancreatic cancer cell line; experiment: Cell viability assay (Cell Titer Glo), HPAC; type: cell-based; settings: Table 7a, pancreatic cancer cell line, 72 hour incubation
Method: as §1, §2

[3] = tested on: MDA-MB-231 breast cancer cell line; experiment: Cell viability assay (Cell Titer Glo), MDA-MB-231; type: cell-based; settings: Table 7a, breast cancer cell line, 72 hour incubation
Method: as §1, §2

[4] = tested on: A2780 ovarian cancer cell line; experiment: Cell viability assay (Cell Titer Glo), A2780; type: cell-based; settings: 72 hour incubation
Method: as §1, §2

[5] = tested on: A673 Ewingsarcoma cell line; experiment: Cell viability assay (Cell Titer Glo), A673; type: cell-based; settings: 72 hour incubation
Method: as §1, §2

[6] = tested on: Kasumi1 leukemia cancer cell line; experiment: Cell viability assay (Cell Titer Glo), Kasumi1; type: cell-based; settings: 72 hour incubation
Method: as §1, §2

[7] = Homo sapiens, Kasumi 1, Table 7a

Sequence of CDK7/CycH/MAT1 (P50613 whole entry): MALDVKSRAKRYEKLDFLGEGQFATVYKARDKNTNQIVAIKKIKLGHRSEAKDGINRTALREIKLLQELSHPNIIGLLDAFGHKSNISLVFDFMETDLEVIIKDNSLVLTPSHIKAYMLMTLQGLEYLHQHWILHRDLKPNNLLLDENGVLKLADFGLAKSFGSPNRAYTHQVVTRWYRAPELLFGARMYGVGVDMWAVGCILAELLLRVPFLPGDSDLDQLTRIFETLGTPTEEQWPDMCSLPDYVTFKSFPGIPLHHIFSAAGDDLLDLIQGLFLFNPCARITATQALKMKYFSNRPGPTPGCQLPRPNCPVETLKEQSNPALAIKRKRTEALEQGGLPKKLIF
Sequence of CDK7/CycH/MAT1 (P51946 whole entry partner): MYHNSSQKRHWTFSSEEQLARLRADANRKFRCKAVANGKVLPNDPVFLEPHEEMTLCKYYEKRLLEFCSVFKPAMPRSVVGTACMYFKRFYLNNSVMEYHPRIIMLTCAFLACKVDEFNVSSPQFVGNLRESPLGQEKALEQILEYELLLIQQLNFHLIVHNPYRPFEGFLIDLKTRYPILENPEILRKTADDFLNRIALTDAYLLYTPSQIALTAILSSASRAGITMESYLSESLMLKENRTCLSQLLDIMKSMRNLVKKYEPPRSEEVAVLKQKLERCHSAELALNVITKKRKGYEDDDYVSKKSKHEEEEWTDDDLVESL
Sequence of CDK7/CycH/MAT1 (P51948 whole entry partner): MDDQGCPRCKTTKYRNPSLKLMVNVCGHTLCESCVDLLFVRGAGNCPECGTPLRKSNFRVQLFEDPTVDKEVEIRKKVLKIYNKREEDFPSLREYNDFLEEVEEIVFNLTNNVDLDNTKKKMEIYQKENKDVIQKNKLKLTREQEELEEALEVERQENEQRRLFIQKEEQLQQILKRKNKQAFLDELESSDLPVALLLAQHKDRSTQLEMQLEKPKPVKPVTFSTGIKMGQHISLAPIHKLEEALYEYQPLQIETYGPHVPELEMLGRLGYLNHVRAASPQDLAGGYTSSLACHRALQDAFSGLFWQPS

| SMILES | IC50 (CDK7/CycH/MAT1) | pIC50 ([1]; Homo sapiens, MIA PaCa-2) | pIC50 ([2]; Homo sapiens, HPAC) | pIC50 ([3]; Homo sapiens, MDA-MB-231) | pIC50 ([4]; Homo sapiens, A2780, Table 7a) | pIC50 ([5]; Homo sapiens, A673, Table 7a) | pIC50 [6, 7] | pIC50 [1] | pIC50 [2] | pIC50 ([6]; Table 7a) | pIC50 [3] | pIC50 ([4]; Table 7a) | pIC50 ([5]; Table 7a) |
| --- | --- | --- | --- | --- | --- | --- | --- | --- | --- | --- | --- | --- | --- |
| CC(C)c1cnc2c(NCc3ccccc3)cc(S[C@@H]3CCCNC3)nn12 (single isomer, unassigned) [Compound 41, hydrochloride] | < 100 nM | 5.30 to 6.00 | 5.30 to 6.00 | 5.30 to 6.00 | 5.30 to 6.00 | 5.30 to 6.00 | – | – | – | – | – | – | – |
| Fc1cccc(Nc2cc(O[C@@H]3CCNC3)nn3c(C4CC4)cnc23)c1 [Compound 6, (R)-3-cyclopropyl-N-(3-fluorophenyl)-6-(pyrrolidin-3-yloxy)imidazo[1,2-b]pyridazin-8-amine] | < 100 nM | 5.30 to 6.00 | > 6.00 | – | 5.30 to 6.00 | – | 5.30 to 6.00 | – | – | – | – | – | – |
| c1ccc(CNc2cc(SC3CCCNC3)nn3c(C4CC4)cnc23)cc1 (stereo not drawn) [Compound 23, N-benzyl-3-cyclopropyl-6-(piperidin-3-ylthio)imidazo[1,2-b]pyridazin-8-amine dihydrochloride salt] | < 100 nM | – | – | – | – | – | – | 5.30 to 6.00 | 5.30 to 6.00 | 5.30 to 6.00 | 5.30 to 6.00 | 5.30 to 6.00 | 5.30 to 6.00 |
| CC(C)c1cnc2c(NCc3ccccc3)nc(SC3CCCNC3)cn12 (stereo not drawn) [Compound 26, N-benzyl-3-isopropyl-6-(piperidin-3-ylthio)imidazo[1,2-α]pyrazin-8-amine formate salt] | < 100 nM | < 5.30 | 5.30 to 6.00 | < 5.30 | 5.30 to 6.00 | 5.30 to 6.00 | 5.30 to 6.00 | – | – | – | – | – | – |
| CC(C)c1cnc2c(NCc3ccccc3OC(F)(F)F)cc(SC3CCNCC3)nn12 [Compound 33] | < 100 nM | > 6.00 | > 6.00 | 5.30 to 6.00 | > 6.00 | > 6.00 | 5.30 to 6.00 | – | – | – | – | – | – |
| CC(C)c1cnc2c(NCc3ccccc3-n3cccn3)cc(SC3CCNCC3)nn12 [Compound 62, N-(2-(1H-pyrazol-1-yl)benzyl)-3-isopropyl-6-(piperidin-4-ylthio)imidazo[1,2-b]pyridazin-8-amine hydrochloride] | < 100 nM | > 6.00 | 5.30 to 6.00 | – | – | 5.30 to 6.00 | > 6.00 | – | – | – | – | – | – |
| CC(C)c1cnc2c(NCc3ccccc3-n3cccn3)cc(SC3CCCNC3)nn12 (stereo not drawn) [Compound 63, N-(2-(1H-pyrazol-1-yl)benzyl)-3-isopropyl-6-(piperidin-3-ylthio)imidazo[1,2-b]pyridazin-8-amine hydrochloride] | < 100 nM | > 6.00 | > 6.00 | – | – | 5.30 to 6.00 | > 6.00 | – | – | – | – | – | – |
| CC(C)c1cnc2c(NCc3ccccc3N(C)C)cc(SC3CCNCC3)nn12 [Compound 64, N-(2-(dimethylamino)benzyl)-3-isopropyl-6-(piperidin-4-ylthio)imidazo[1,2-b]pyridazin-8-amine hydrochloride] | < 100 nM | > 6.00 | 5.30 to 6.00 | – | – | > 6.00 | > 6.00 | – | – | – | – | – | – |
| CC(C)c1cnc2c(NCc3ccccc3OC(F)F)cc(SC3CCNCC3)nn12 [Compound 66, N-(2-(difluoromethoxy)benzyl)-3-isopropyl-6-(piperidin-4-ylthio)imidazo[1,2-b]pyridazin-8-amine hydrochloride] | < 100 nM | > 6.00 | > 6.00 | – | – | > 6.00 | 5.30 to 6.00 | – | – | – | – | – | – |
| CC(C)c1cnc2c(NCc3ccccc3OC(F)(F)F)cc(OC3CCNCC3F)nn12 (stereo not drawn) [Compound 70, 6-((3-fluoropiperidin-4-yl)oxy)-3-isopropyl-N-(2-(trifluoromethoxy)benzyl)imidazo[1,2-b]pyridazin-8-amine hydrochloride] | < 100 nM | 5.30 to 6.00 | 5.30 to 6.00 | – | 5.30 to 6.00 | – | 5.30 to 6.00 | – | – | – | – | – | – |
| COc1ccccc1CNc1cc(SC2CCNCC2F)nn2c(C(C)C)cnc12 (stereo not drawn) [Compound 73, 6-((3-fluoropiperidin-4-yl)thio)-3-isopropyl-N-(2-methoxybenzyl)imidazo[1,2-b]pyridazin-8-amine hydrochloride] | < 100 nM | 5.30 to 6.00 | 5.30 to 6.00 | – | 5.30 to 6.00 | – | 5.30 to 6.00 | – | – | – | – | – | – |
| CC(C)c1cnc2c(NCc3ccccc3C(F)(F)F)cc(SC3CCNCC3F)nn12 (stereo not drawn) [Compound 77, 6-((3-fluoropiperidin-4-yl)thio)-3-isopropyl-N-(2-(trifluoromethyl)benzyl)imidazo[1,2-b]pyridazin-8-amine hydrochloride] | < 100 nM | 5.30 to 6.00 | 5.30 to 6.00 | – | 5.30 to 6.00 | – | 5.30 to 6.00 | – | – | – | – | – | – |
| Fc1cccc(Nc2cc(O[C@H]3CCCNC3)nn3c(C(F)(F)F)cnc23)c1 [Compound 82, (S)-N-(3-fluorophenyl)-6-(piperidin-3-yloxy)-3-(trifluoromethyl)imidazo[1,2-b]pyridazin-8-amine hydrochloride] | < 100 nM | – | – | – | – | – | – | – | – | – | – | – | – |
| COc1ccccc1CNc1cc(OC2CCN(C)CC2)nn2c(C3CC3)cnc12 [Compound I-2] | 100 to 1000 nM | – | – | – | – | – | – | – | – | – | – | – | – |
| CC(C)c1cnc2c(NCc3ccccc3)cc(NC[C@H]3CCNC[C@@H]3O)nn12 [Compound I-3] | < 100 nM | – | – | – | – | – | – | – | – | – | – | – | – |

Further lines, results first:

| IC50 (CDK7/CycH/MAT1) | pIC50 ([1]; Homo sapiens, MIA PaCa-2) | pIC50 ([2]; Homo sapiens, HPAC) | pIC50 ([3]; Homo sapiens, MDA-MB-231) | pIC50 ([4]; Homo sapiens, A2780, Table 7a) | pIC50 ([5]; Homo sapiens, A673, Table 7a) | pIC50 [6, 7] | pIC50 [1] | pIC50 [2] | pIC50 ([6]; Table 7a) | pIC50 [3] | pIC50 ([4]; Table 7a) | pIC50 ([5]; Table 7a) | SMILES |
| --- | --- | --- | --- | --- | --- | --- | --- | --- | --- | --- | --- | --- | --- |
| < 100 nM | 5.30 to 6.00 | 5.30 to 6.00 | 5.30 to 6.00 | 5.30 to 6.00 | 5.30 to 6.00 | 5.30 to 6.00 | – | – | – | – | – | – | c1ccc(CNc2cc(SC3CCCNC3)nn3c(C4CC4)cnc23)cc1 (stereo not drawn) [Compound 22, N-benzyl-3-cyclopropyl-6-(piperidin-3-ylthio)imidazo[1,2-b]pyridazin-8-amine formate] |
| < 100 nM | 5.30 to 6.00 | 5.30 to 6.00 | 5.30 to 6.00 | > 6.00 | 5.30 to 6.00 | 5.30 to 6.00 | – | – | – | – | – | – | CC(C)c1cnc2c(N[C@@H](C)c3ccccc3)cc(SC3CCNCC3)nn12 [Compound 24, (S)-3-isopropyl-N-(1-phenylethyl)-6-(piperidin-4-ylthio)imidazo[1,2-b]pyridazin-8-amine] |
| < 100 nM | 5.30 to 6.00 | 5.30 to 6.00 | < 5.30 | 5.30 to 6.00 | 5.30 to 6.00 | 5.30 to 6.00 | – | – | – | – | – | – | CC(C)c1cnc2c(N[C@@H](C)c3ccccc3)nc(SC3CCNCC3)cn12 [Compound 32, (S)-3-isopropyl-N-(1-phenylethyl)-6-(piperidin-4-ylthio)imidazo[1,2-α]pyrazin-8-amine dihydrochloride] |
| < 100 nM | 5.30 to 6.00 | 5.30 to 6.00 | < 5.30 | 5.30 to 6.00 | < 5.30 | 5.30 to 6.00 | – | – | – | – | – | – | CC(C)c1cnc2c(N[C@@H](C)c3ccccc3)nc(SC3CCCNC3)cn12 (stereo partly drawn) [Compound 34, 3-isopropyl-N-((S)-1-phenylethyl)-6-(piperidin-3-ylthio)imidazo[1,2-α]pyrazin-8-amine hydrochloride] |
| < 100 nM | 5.30 to 6.00 | 5.30 to 6.00 | < 5.30 | 5.30 to 6.00 | – | – | – | – | – | – | – | – | COc1ccccc1CNc1nc(SC2CCNCC2)cn2c(C(C)C)cnc12 [Compound 51, 3-isopropyl-N-(2-methoxybenzyl)-6-(piperidin-4-ylthio)imidazo[1,2-a]pyrazin-8-amine formate] |
| < 100 nM | > 6.00 | > 6.00 | 5.30 to 6.00 | > 6.00 | – | – | – | – | – | – | – | – | CC(C)c1cnc2c(NCc3ccccc3C(F)(F)F)cc(SC3CCNCC3)nn12 [Compound 53, 3-isopropyl-6-(piperidin-4-ylthio)-N-(2-(trifluoromethyl)benzyl)imidazo[1,2-b]pyridazin-8-amine hydrochloride] |
| < 100 nM | > 6.00 | > 6.00 | – | > 6.00 | – | 5.30 to 6.00 | – | – | – | – | – | – | CC(C)c1cnc2c(NCc3ccc(F)cc3F)cc(SC3CCNCC3)nn12 [Compound 56, N-(2,4-difluorobenzyl)-3-isopropyl-6-(piperidin-4-ylthio)imidazo[1,2-b]pyridazin-8-amine hydrochloride] |
| 100 to 1000 nM | – | – | – | – | – | – | – | – | – | – | – | – | CC(C)c1cnc2c(NCc3ccccc3)cc(NC[C@H]3CCCNC3)nn12 [Compound I-4] |
